In US11572344B2, “Cyanoaryl-aniline compounds for treatment of dermal disorders” (NFlection Therapeutics, Inc., priority 2018, dated 2023):

Legend:
MEK1 = MEK1 (Homo sapiens (Human), UniProt Q02750); assay: MEK Inhibition Assay-2 (Z′-LYTE biochemical assay); conditions: Z′-LYTE assay of Example 39; read-out: IC50 against MEK1
Experimental: MEK1 inhibitory activity of compounds were tested using the following procedure (protocol available at thermofisher.com/content/dam/LifeTech/migration/files/drug-discovery/pdfs.par.60256.file.dat/20130430%20ssbk %20customer %20protocol %20and %20assa y %20conditions.pdf). The Z′-LYTE biochemical assay (ThermoFisher) employs a fluorescence-based, coupled-enzyme format and is based on the differential sensitivity of phosphorylated and non-phosphorylated peptides to proteolytic cleavage.
Test compounds in 100% DMSO were screened in 1% DMSO (final) in the well. For 10 point titrations, 3-fold serial dilutions are conducted from the starting concentration of 30 μM.
After the 1 hour incubation, 5 μL of a 1:1024 dilution of Development Reagent A (available from Invitrogen, catalog no. PV3295) was added.
ATP solutions were diluted to a 4× working concentration in Kinase Buffer (50 mM HEPES pH 7.5, 0.01% BRIJ-35, 10 mM MgCl2, 1 mM EGTA). ATP Km apparent was previously determined using a Z′-LYTE assay. The Development Reagent was diluted in Development Buffer (available from Invitrogen, catalog no. P3127).
Assay Protocol: 2.5 μL of 4× test compound or 100 nL of 100× Test Compound plus 2.4 μL Kinase Buffer, 5 μL of the 2× Peptide/Kinase Mixture, 2.5 μL of 4×ATP Solution were added to the plates and placed on a shake plate for 30-seconds. The kinase reaction was allowed to proceed for 60-minute at room temperature, before 5 μL of Development Reagent Solution was added, and the mixture agitated for 30-seconds on a shake plate. The mixture was incubated for 60-minute at room temperature. Fluorescence was measured using a plate reader and the data were analyzed.
This control yielded 100% cleaved peptide in the Development Reaction. The 100% Phosphorylation Control, which consisted of a synthetically phosphorylated peptide of the same sequence as the peptide substrate, was designed to allow for the calculation of percent phosphorylation. This control yielded a very low percentage of cleaved peptide in the Development Reaction. The 0% Phosphorylation and 100% Phosphorylation Controls allow for the calculation of the percent phosphorylation achieved in a specific reaction well.
The minimum emission ratio in a screen was established by the 0% Inhibition Control, which contained active kinase. This control was designed to produce a 10-50% phosphorylated peptide in the Kinase Reaction. Cascade assays may produce up to 70% phosphorylated peptide.
A known inhibitor control standard curve, 10 point titration, was run for each individual kinase on the same plate as the kinase to ensure the kinase was inhibited within an expected IC50 range previously determined.
The following controls are prepared for each concentration of Test Compound assayed. […] The expected value for a non-interfering compound should be 100%. Any value outside of 90% to 110% was flagged. […] The expected value for a non-fluorescence compound should be 0%. Any value>20% was flagged.
The data in Table A was calculated. XLfit from IDBS was used. The dose response curve was curve fit to model number 205 (sigmoidal dose-response model).
Table 3 lists the MEK1 inhibition assay results of selected compounds according to the above procedure.

[1] = Liver S9 half-life stability assay; type: in vitro ADME; conditions: human, liver S9 fraction, pH 7.4; 1 μM test compound, 2 mg/mL liver protein, 1 mM NADPH; read-out: Assay 4: liver S9 half-life
Experimental: Compounds can be assessed for metabolic stability in human skin by assessing their rate of disappearance from human S9 skin fraction. Similarly, compounds can be assessed for metabolic stability in human liver by assessing their rate of disappearance from human S9 liver fraction. The protocol below is used to assess the difference between skin and hepatic metabolism.
The assay was carried out in 96-well microtiter plates at 37° C. Reaction mixtures (25 μL) contained a final concentration of 1 μM test compound, 2 mg/mL liver or skin protein, and 1 mM NADPH in buffer (100 mM potassium phosphate, pH 7.4 buffer with 1 mM EDTA, 3 mM MgCl2). At each of the time points (0, 15, 30, and 60 minutes), 150 μL of quench solution (100% acetonitrile with 0.1% formic acid) with internal standard was transferred to each well. Besides the zero minute controls, mixtures containing the same components except the NADPH were also prepared as the negative control. Verapamil or testosterone was included as a positive control to verify assay performance. Plates were sealed and centrifuged at 4° C. for 15 minutes at 4000 rpm. The supernatant was transferred to fresh plates for LC/MS/MS analysis.
All samples were analyzed on LC/MS/MS using an AB Sciex API 4000 instrument, coupled to a Shimadzu LC-20AD LC Pump system. Analytical samples were separated using a Waters Atlantis T3 dC18 reverse phase HPLC column (20 mm×2.1 mm) at a flow rate of 0.5 mL/min. The mobile phase consisted of 0.1% formic acid in water (solvent A) and 0.1% formic acid in 100% acetonitrile (solvent B).
The extent of metabolism was calculated as the disappearance of the test compound, compared to the 0-min control reaction incubations. Initial rates were calculated for the compound concentration and used to determine t1/2 values and subsequently, the intrinsic clearance, CLint=(0.693) (1/t1/2 (min)) (mL incubation/mg of S9 protein).
Assay 4 is the liver S9 half-life stability assay as described in Example 42. A4 indicates a half life of greater than 50 min and less than or equal to 200 min and B4 indicates a half life of less than or equal to 50 minutes.

A375 cells = assay: A375 (BRAF) GI50 cell-based assay (Cell Titer-Glo); conditions: Homo sapiens, A-375, 72 hours, read-out: Assay 2: A375 (BRAF) GI50
Experimental: (§1) Alternatively, the following procedure can be used to measure cell-based activity. Test compounds were dissolved in DMSO in 10 mM stock. Cell Titer-Glo® 2.0 Luminescent cell viability assay reagent was purchased from Promega (Madison, Wis.). A375 and HCT116 cell lines were purchased from American Type Culture Collection (Manassas, Va.). For A375 cells, cell culture media was DMEM+10% FBS. For HCT116 cells, cell culture media was McCoy's 5A+10% FBS. All media were supplemented with 100 μg/mL of penicillin, and 100 μg/mL of streptomycin. Cultures were maintained at 37° C. in a humidified atmosphere of 5% CO2 and 95% air.
(§2) Test compounds were diluted in DMSO solution with 10-dose and 3-fold dilutions in a source plate starting at 10 mM. 25 nL of each test compound was delivered from the source plate to each well of the 384-well cell culture plates (T=Final) by Echo 550. 25 μL of culture medium containing 2000 of A375 or HCT116 cells was added to each of the wells in duplicates of the cell culture plates (T=0 and T=Final). 25 μL of Cell Titer Glo 2.0 reagent was added to each well of cell culture plate (T=0). The contents were mixed on an orbital shaker for 2 min and incubated at room temperature for 15 min to stabilize luminescent signal. Luminescence was recorded by Envision 2104 Multilabel Reader (PerkinElmer, Santa Clara, Calif.). The number of viable cells in culture was determined based on quantitation of the ATP present in each culture well. The cells in cell culture plate (T=Final) were incubated with the compounds at 37° C., 5% CO2 for 72 hours. 25 μL of Cell Titer Glo 2.0 reagent was added to each well. The contents were mixed on an orbital shaker for 2 min and incubated at room temperature for 15 min to stabilize luminescent signal. Luminescence was recorded by Envision 2104 Multilabel Reader (PerkinElmer, Santa Clara, Calif.). The number of viable cells in culture was determined based on quantitation of the ATP present in each culture well. The GI50 curves were plotted using the GraphPad Prism 4 program based on a sigmoidal dose-response equation Y=Bottom+(Top-Bottom)/(1+10^((Log EC50−X)*HillSlope)). All parameters in the equation were calculated by GraphPad Prism 4 program. […] Accordingly, GI50 is the value of 10^X, where X was calculated by the Curve Fitting Equation when Y=50 using Excel.
Assay 2 is the A375 (BRAF) GI50 (nM) cell-based assay as described in Example 41.

HCT116 cells = assay: HCT116 (Kras) GI50 cell-based assay (Cell Titer-Glo); conditions: Homo sapiens, HCT-116, 72 hours, read-out: Assay 3: HCT116 (Kras) GI50
Experimental: as §1, §2
Assay 3 is the HCT116 (Kras) GI50 (nM) assay as described in Example 41.

[2] = systemic MEK inhibitor; cited from earlier work

Chain of MEK1 (Q02750 whole entry): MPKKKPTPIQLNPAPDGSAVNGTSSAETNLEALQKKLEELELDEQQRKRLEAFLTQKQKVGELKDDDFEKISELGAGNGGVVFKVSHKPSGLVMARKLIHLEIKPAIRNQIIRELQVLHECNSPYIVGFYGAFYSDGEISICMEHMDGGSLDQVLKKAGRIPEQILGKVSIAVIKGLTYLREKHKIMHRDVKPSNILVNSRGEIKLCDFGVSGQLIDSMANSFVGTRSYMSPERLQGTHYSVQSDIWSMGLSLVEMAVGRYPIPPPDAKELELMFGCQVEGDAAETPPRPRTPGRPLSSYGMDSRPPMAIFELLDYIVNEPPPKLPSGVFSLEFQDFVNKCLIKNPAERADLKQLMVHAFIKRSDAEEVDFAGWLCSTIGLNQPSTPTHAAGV

Q: With `N#Cc1ccc(C(=O)NC2CC2)c(Nc2ccc(I)cc2F)c1` [Compound 1.005] as the compound, how does the IC50 (MEK1) read?
A: The IC50 was greater than 1500 nM.

Q: Which half-life at 1 μM [1] does the source give for `CONC(=O)c1ccc(C#N)cc1Nc1ccc(I)cc1F` [Compound 1.007] here?
A: Its half-life at 1 μM is no more than 50 min.

Q: What about the GI50 (A375 cells) of the same compound?
A: The GI50 was 500 to 1500 nM.

Q: What about the GI50 (HCT116 cells) of the same compound?
A: The GI50 was 750 to 2000 nM.

Q: Which results are given for `CCONC(=O)c1ccc(C#N)cc1Nc1ccc(I)cc1F` [Compound 1.008]?
A: half-life at 1 μM [1]: ≤ 50 min; GI50 (A375 cells): 500 to 1500 nM; GI50 (HCT116 cells): 750 to 2000 nM

Q: Which half-life at 1 μM [1] does the source give for `CCCONC(=O)c1ccc(C#N)cc1Nc1ccc(I)cc1F` [Compound 1.009] here?
A: Its half-life at 1 μM is no more than 50 min.

Q: With `N#Cc1ccc(C(=O)NO)c(Nc2ccc(I)cc2F)c1` [Compound 1.017, 4-Cyano-2-((2-fluoro-4-iodophenyl)amino)-N-hydroxybenzamide] as the compound, how does the IC50 (MEK1) read?
A: Its IC50 is no more than 150 nM.

Q: With `COC(=O)CCONC(=O)c1ccc(C#N)cc1Nc1ccc(I)cc1F` [Compound 1.022, Methyl 3-((4-cyano-2-((2-fluoro-4-iodophenyl)amino)benzamido)oxy) propanoate] as the compound, how does the IC50 (MEK1) read?
A: Its IC50 is greater than 1500 nM.

Q: For `O=C(NOC[C@H](O)CO)c1ccc(F)c(F)c1Nc1ccc(I)cc1F` [PD0325901], which “side effects in clinical trials” value [2] is on record?
A: The value was “neurological side effects associated with ataxia, confusion, and syncope”.
